Data: patent US20080269258A1, “Riboswitches, Structure-Based Compound Design with Riboswitches, and Methods and Compositions for Use of and with Riboswitches” (priority 2004, published 2008)
≈ marks a conversion by molar mass, not a printed value. Like-named read-outs stand apart in the source and are kept apart here.

What was measured:
[1] = target: adenine riboswitch RNA (AR); assay: Isothermal titration calorimetry, adenine riboswitch RNA; format: binding; conditions: 50 mM K+HEPES, pH 7.5, 100 mM KCl, 10 mM MgCl2, 30° C.
Procedure: Isothermal Titration Calorimetry. […] All experiments were performed with a Microcal MCS ITC instrument at 30° C. […] Titration data was analyzed using Origin ITC software (Microcal Software Inc.) and fit to a single-site binding model.

[2] = system: guanine riboswitch RNA (GR); assay: Isothermal titration calorimetry, guanine riboswitch RNA; format: binding, B. subtilis
From the text: Isothermal Titration Calorimetry. RNA for isothermal titration calorimetry (ITC) (Leavitt, S. & Freire, E. Direct measurement of protein binding energetics by isothermal titration calorimetry. Curr Opin Struct Biol 11, 560-6 (2001); Pierce, M., Raman, C. S. & Nall, B. T. Isothermal titration calorimetry of protein-protein interactions. […]

[3] = system: guanine riboswitch (aptamer of the xpt-pbuX mRNA); assay: In-line probing of ligand binding to the guanine riboswitch in vitro; design: species or system B. subtilis; conditions: for Kd: high Mg2+ ion concentrations (20 mM MgCl2), read-out: observed dissociation constant (Kd)
From the text: The putative anti-terminator interaction is represented by the boxes. Nucleotides that undergo structural alteration as determined by in-line probing (from C) are identified with squares. […] Asterisks denote alterations to the RNA sequence that facilitate in vitro transcription (5′ terminus) or that generate a restriction site (3′ terminus). Nucleotide numbers begin at the first nucleotide of the natural transcription start site. The translation start codon begins at position 186. […] Lanes designated NR, T1 and ^−OH contain RNA that was not reacted, subjected to partial digestion with RNase T1 (G-specific cleavage), or subjected to partial alkaline digestion, respectively. Selected bands corresponding to G-specific cleavage are identified.
Differences in chemical structure relative to guanine are encircled. Numbers on guanine represent the positions of the ring nitrogen atoms.
NR, T1 and OH identify no reaction, nuclease T1 partial digestion, and alkaline partial digestion respectively. In-line probing assays were conducted for ˜1 day, and a dampening of spontaneous RNA cleavage product bands in the J1/2, J2/3 and J3/1 regions are indicative of ligand binding.

purR repressor protein = purR repressor protein (Escherichia coli, UniProt P0ACP7); conditions: read-out: observed Kd; E. coli variant of purR repressor; cited from earlier work
[4] = system: methicillin-resistant Staphylococcus aureus; assay: Minimal inhibitory concentration, clinically relevant pathogens; format: cell-based; conditions: MRSA, read-out: Minimal inhibitory concentrations, MRSA
Bacillus anthracis = assay: microbe, parasite or virus in culture; format: cell-based; conditions: read-out: Minimal inhibitory concentrations, BA
Streptococcus pneumoniae = assay: Minimal inhibitory concentration, clinically relevant pathogens; format: cell-based; conditions: read-out: Minimal inhibitory concentrations, SP
Haemophilus influenza = assay: as above; format: cell-based; conditions: pathogen without guanine riboswitch, read-out: Minimal inhibitory concentrations, HI
Mycobacterium smegmatis = assay: as above; format: cell-based; conditions: Mycolicibacterium smegmatis; pathogen without guanine riboswitch; read-out: Minimal inhibitory concentrations, MS
[5] = 50 mM K+HEPES, 100 mM KCl, 10 mM MgCl2, 30° C.
[6] = 50 mM K+HEPES, 100 mM KCl, 10 mM MgCl2, 30° C., read-out: Kd

purR repressor protein, sequence (P0ACP7 whole entry): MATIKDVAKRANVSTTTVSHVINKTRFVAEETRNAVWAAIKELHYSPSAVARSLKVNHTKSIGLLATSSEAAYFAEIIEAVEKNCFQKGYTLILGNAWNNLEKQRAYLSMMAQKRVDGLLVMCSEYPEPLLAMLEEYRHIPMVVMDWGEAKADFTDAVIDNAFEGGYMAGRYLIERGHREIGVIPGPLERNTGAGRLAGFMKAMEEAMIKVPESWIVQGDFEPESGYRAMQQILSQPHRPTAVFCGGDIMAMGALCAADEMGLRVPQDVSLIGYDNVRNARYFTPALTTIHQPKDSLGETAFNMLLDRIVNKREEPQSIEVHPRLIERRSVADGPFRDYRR

## Nc1nc(N)c(N)c(N)n1 [2,4,5,6-Tetraaminopyrimidine]
[1]
  Kd: 24.9 ± 4.25 µM
  ΔH: -181 ± 14.6 kJ/mol
  ΔS: −122 ± 12.0 Cal/mol · deg

## Nc1cc(N)nc(N)n1 [2,4,6-Triaminopyrimidine]
[1]
  Kd: 18.3 ± 1.67 µM
  ΔH: -158 ± 0.962 kJ/mol
  ΔS: −102 ± 0.70 Cal/mol · deg

## Nc1nc(N)c2[nH]cnc2n1 [2,6-Diaminopurine]
[1]
  Kd: 0.017 ± 0.006 µM
  ΔH: -169 ± 12.2 kJ/mol
  ΔS: −97.6 ± 4.00 Cal/mol · deg

## Nc1ncc2[nH]cnc2n1 [2-Aminopurine]
[2]; [5]
  ΔH: -194 ± 11.1 kJ/mol
  ΔS: −129 ± 8.20 cal/mol · deg
[2]; [6]
  Kd: 4.36 ± 1.2 µM
[1]
  Kd: 0.251 ± 0.026 µM
  ΔH: -133 ± 11 kJ/mol
  ΔS: −73.9 ± 9.26 Cal/mol · deg

## Nc1nc(F)nc2nc[nH]c12 [2-Fluoroadenine]
[1]
  Kd: 4.02 ± 1.07 µM
  ΔH: -156 ± 14.3 kJ/mol
  ΔS: −98.7 ± 11.8 Cal/mol · deg

## Nc1nc(Br)c2[nH]cnc2n1 [6-Bromoguanine]
[2]; [5]
  ΔH: -163 ± 32.6 kJ/mol
  ΔS: −103 ± 26.2 cal/mol · deg
[2]; [6]
  Kd: 2.12 ± 0.56 µM
[1]
  Kd: 2.7 ± 1.16 µM
  ΔH: -211 ± 0.669 kJ/mol
  ΔS: −141 ± 1.90 Cal/mol · deg

## Nc1nc(Cl)c2nc[nH]c2n1 [6-Chloroguanine]
[2]; [5]
  ΔH: -182 ± 54.8 kJ/mol
  ΔS: −116 ± 43.2 cal/mol · deg
[2]; [6]
  Kd: 0.856 ± 0.014 µM
[1]
  Kd: 0.721 ± 0.044 µM
  ΔH: -185 ± 30.1 kJ/mol
  ΔS: −98.6 ± 4.39 Cal/mol · deg

## Cc1ncnc2nc[nH]c12 [6-Methylpurine]
[1]
  Kd: 25.2 ± 1.63 µM
  ΔH: -132 ± 1.76 kJ/mol
  ΔS: −82.9 ± 1.25 Cal/mol · deg

## CSc1nc(N)nc2nc[nH]c12 [6-Methylthioguanine]
[2]; [5]
  ΔH: -103 ± 0.837 kJ/mol
  ΔS: −46.9 ± 0.24 cal/mol · deg
[2]; [6]
  Kd: 0.0418 ± 0.003 µM

## Nc1nc2nc[nH]c2c(=S)[nH]1 [6-Thioguanine]
[2]; [5]
  ΔH: -170 ± 60.7 kJ/mol
  ΔS: −101 ± 47.5 cal/mol · deg
[2]; [6]
  Kd: 0.0737 ± 0.01 µM

## Nc1nc2c(c(=O)[nH]1)CC=N2 [7-Deazaguanine]
[2]; [5]
  ΔH: -176 ± 15.6 kJ/mol
  ΔS: −105 ± 11.7 cal/mol · deg
[2]; [6]
  Kd: 0.049 ± 0.013 µM

## Nc1ncnc2nc[nH]c12 [Adenine]
[1]
  Kd: 0.469 ± 0.041 µM
  ΔH: -144 ± 0.21 kJ/mol
  ΔS: −84.8 ± 0.30 Cal/mol · deg

## Nc1nc2nn[nH]c2c(=O)[nH]1 [Compound 8-Azaguanine, 8-Azaguanine]
[2]; [5]
  ΔH: -196 ± 41.3 kJ/mol
  ΔS: −121 ± 32.6 cal/mol · deg
[2]; [6]
  Kd: 0.0487 ± 0.1 µM

## Nc1nc2nc[nH]c2c(=O)[nH]1 [Guanine]
[3]
  affinity of the riboswitch for guanine over hypoxanthine: tenfold
  Kd: 0.005 µM
[2]; [5]
  ΔH: -224 ± 29.2 kJ/mol
  ΔS: −137 ± 24.8 cal/mol · deg
[2]; [6]
  Kd: 0.004 ± 0.003 µM

## O=c1[nH]cnc2nc[nH]c12 [Hypoxanthine]
[3]
  Kd: 0.05 µM
[2]; 0.25 mM MgCl2, 30° C.
  ΔHobs: -175 ± 1.63 kJ/mol
  ΔSobs: −113 cal mol^−1 K^−1
[2]; 0.25 mM MgCl2, 30° C., read-out: Kd
  Kd: 4 ± 0.19 µM
[2]; 1.0 mM MgCl2, 30° C.
  ΔHobs: -148 ± 3.89 kJ/mol
  ΔSobs: −91 cal mol^−1 K^−1
[2]; 1.0 mM MgCl2, 30° C., read-out: Kd
  Kd: 2.99 ± 0.19 µM
[2]; 5.0 mM MgCl2, 30° C.
  ΔHobs: -119 ± 2.01 kJ/mol
  ΔSobs: −67 cal mol^−1 K^−1
[2]; 5.0 mM MgCl2, 30° C., read-out: Kd
  Kd: 1.34 ± 0.094 µM
[2]; 20 mM MgCl2, 30° C.
  ΔHobs: -140 ± 1.8 kJ/mol
  ΔSobs: −82 cal mol^−1 K^−1
[2]; 20 mM MgCl2, 30° C., read-out: Kd
  Kd: 0.732 ± 0.034 µM
[2]; [5]
  ΔH: -131 ± 0.042 kJ/mol
  ΔS: −75.3 ± 0.145 cal/mol · deg
[2]; [6]
  Kd: 0.759 ± 0.066 µM
[2]; ITC, more physiological ionic strength (0.25-1 mM Mg2+), read-out: observed Kd
  Kd: 3 to 4 µM
purR repressor protein
  Kd: 9 µM

## COc1nc(N)nc2nc[nH]c12 [O-Methylguanine]
[2]; [5]
  ΔH: -78.2 kJ/mol
  ΔS: −23.3 cal/mol · deg
[2]; [6]
  Kd: 0.003 µM

## c1ncc2[nH]cnc2n1 [Purine]
[1]
  Kd: 110 ± 3 µM
  ΔH: -106 ± 4.14 kJ/mol
  ΔS: −65.4 ± 3.00 Cal/mol · deg

## CN[C@H](CC(C)C)C(=O)N[C@H]1C(=O)N[C@@H](CC(N)=O)C(=O)N[C@H]2C(=O)N[C@H]3C(=O)N[C@H](C(=O)N[C@H](C(=O)O)c4cc(O)cc(O)c4-c4cc3ccc4O)[C@H](O)c3ccc(c(Cl)c3)Oc3cc2cc(c3O[C@@H]2O[C@H](CO)[C@@H](O)[C@H](O)[C@H]2O[C@H]2C[C@](C)(N)[C@H](O)[C@H](C)O2)Oc2ccc(cc2Cl)[C@H]1O [Vancomycin]
[4]
  MIC: 1 mg/L (≈ 0.69 µM)
Bacillus anthracis
  MIC: 1.5 mg/L (≈ 1.04 µM)
Streptococcus pneumoniae
  MIC: 0.25 mg/L (≈ 0.173 µM)
Haemophilus influenza
  MIC: 64 mg/L (≈ 44.2 µM)
Mycobacterium smegmatis
  MIC: 24 mg/L (≈ 16.6 µM)

## O=c1[nH]c(=O)c2[nH]cnc2[nH]1 [Xanthine]
[2]; [5]
  ΔH: -145 ± 43.5 kJ/mol
  ΔS: −94.4 ± 34.5 cal/mol · deg
[2]; [6]
  Kd: 50.5 ± 5.8 µM
